Measurements published in publication PMC5218480 (PLoS ONE, 2017).

System: MV-4-11 cells
Test: Gene expression microarray analysis (Affymetrix PrimeView) and GSEA
Type: cell-based, human
Set-up: RFU PODN (11730768_x_at) / Fold change /veh PODN (11730768_x_at) / RFU LINC00158 (11744669_a_at) / Fold change /veh LINC00158 (11744669_a_at) / RFU DUSP10 (11751237_a_at) / Fold change /veh DUSP10 (11751237_a_at) / RFU ID3 (11757404_x_at) / Fold change /veh ID3 (11757404_x_at) / RFU PLEKHG5 (11737974_s_at) / Fold change /veh PLEKHG5 (11737974_s_at) / RFU LRRC4B (11730491_at) / Fold change /veh LRRC4B (11730491_at) / RFU GIMAP4 (11747438_a_at) / Fold change /veh GIMAP4 (11747438_a_at) / RFU KRT8 (11758183_x_at) / Fold change /veh KRT8 (11758183_x_at) / RFU CNN1 (11734310_a_at) / Fold change /veh CNN1 (11734310_a_at) / RFU VPS37D (11726825_at) / Fold change /veh VPS37D (11726825_at) / RFU C10orf10 (11716522_x_at) / Fold change /veh C10orf10 (11716522_x_at) / RFU KIR2DL2 /// KIR2DL4 /// KIR2DL5A /// KIR2DL5B /// KIR2DS1 /// KIR2DS2 /// KIR2DS3 /// KIR2DS4 /// KIR3DL3 /// KIR3DL3 /// KIR3DS1 (11738374_at) / Fold change /veh KIR2DL2 /// KIR2DL4 /// KIR2DL5A /// KIR2DL5B /// KIR2DS1 /// KIR2DS2 /// KIR2DS3 /// KIR2DS4 /// KIR3DL3 /// KIR3DL3 /// KIR3DS1 (11738374_at) / RFU C1QL1 (11718748_at) / Fold change /veh C1QL1 (11718748_at) / RFU TMPRSS4 (11747572_a_at) / Fold change /veh TMPRSS4 (11747572_a_at) / RFU HAMP (11756126_x_at) / Fold change /veh HAMP (11756126_x_at) / RFU RNFT2 (11725882_a_at) / Fold change /veh RNFT2 (11725882_a_at) / RFU NR4A2 (11747474_a_at) / Fold change /veh NR4A2 (11747474_a_at) / RFU ABCC12 (11746883_a_at) / Fold change /veh ABCC12 (11746883_a_at) / RFU TMEM136 (11760407_x_at) / Fold change /veh TMEM136 (11760407_x_at) / RFU CLDN22 /// WWC2 (11732394_at) / Fold change /veh CLDN22 /// WWC2 (11732394_at) / RFU HLA-DPB1 (11760878_x_at) / Fold change /veh HLA-DPB1 (11760878_x_at) / RFU SPINT1 (11716480_a_at) / Fold change /veh SPINT1 (11716480_a_at) / RFU GAP43 (11754022_s_at) / Fold change /veh GAP43 (11754022_s_at) / RFU A4GNT (11735810_at) / Fold change /veh A4GNT (11735810_at) / RFU PRB3 (11715151_x_at) / Fold change /veh PRB3 (11715151_x_at) / RFU TUBB4B (11761932_at) / Fold change /veh TUBB4B (11761932_at) / RFU CAPN14 (11732068_a_at) / Fold change /veh CAPN14 (11732068_a_at) / RFU TMCC2 (11721928_a_at) / Fold change /veh TMCC2 (11721928_a_at) / RFU IRGQ (11745062_a_at) / Fold change /veh IRGQ (11745062_a_at) / RFU FAM174B (11720279_a_at) / Fold change /veh FAM174B (11720279_a_at) / RFU TMPRSS4 (11748680_a_at) / Fold change /veh TMPRSS4 (11748680_a_at) / RFU FAM212B (11763350_a_at) / Fold change /veh FAM212B (11763350_a_at) / RFU PLEKHG5 (11743358_a_at) / Fold change /veh PLEKHG5 (11743358_a_at) / RFU ZSCAN30 (11745921_a_at) / Fold change /veh ZSCAN30 (11745921_a_at) / RFU CMKLR1 (11741424_a_at) / Fold change /veh CMKLR1 (11741424_a_at) / RFU LOC101060620 /// MAPK8IP1 (11723275_at) / Fold change /veh LOC101060620 /// MAPK8IP1 (11723275_at) / RFU SPTSSB (11747773_x_at) / Fold change /veh SPTSSB (11747773_x_at) / RFU PRSS12 (11739890_at) / Fold change /veh PRSS12 (11739890_at) / RFU BIN1 (11741810_x_at) / Fold change /veh BIN1 (11741810_x_at) / RFU WNT11 (11732464_a_at) / Fold change /veh WNT11 (11732464_a_at) / RFU C10orf10 (11716521_a_at) / Fold change /veh C10orf10 (11716521_a_at) / RFU C5orf56 (11738089_at) / Fold change /veh C5orf56 (11738089_at) / RFU CYB561 (11721691_x_at) / Fold change /veh CYB561 (11721691_x_at) / RFU ANKRD19P (11752326_a_at) / Fold change /veh ANKRD19P (11752326_a_at) / RFU OR2T12 /// OR2T33 /// OR2T8 (11738714_s_at) / Fold change /veh OR2T12 /// OR2T33 /// OR2T8 (11738714_s_at) / RFU VCAN (11748164_a_at) / Fold change /veh VCAN (11748164_a_at) / RFU JSRP1 (11732532_at) / Fold change /veh JSRP1 (11732532_at) / RFU KRTAP10-11 (11738290_x_at) / Fold change /veh KRTAP10-11 (11738290_x_at) / RFU MYO3A (11730013_a_at) / Fold change /veh MYO3A (11730013_a_at) / RFU EBF3 (11725865_a_at) / Fold change /veh EBF3 (11725865_a_at) / RFU CAMK2N1 (11719241_x_at) / Fold change /veh CAMK2N1 (11719241_x_at) / RFU C5orf56 (11738088_a_at) / Fold change /veh C5orf56 (11738088_a_at) / RFU OLFML3 (11715873_a_at) / Fold change /veh OLFML3 (11715873_a_at) / RFU LOC100653217 /// NTM (11731650_a_at) / Fold change /veh LOC100653217 /// NTM (11731650_a_at) / RFU MAPK11 (11762145_a_at) / Fold change /veh MAPK11 (11762145_a_at) / RFU FIZ1 (11724087_x_at) / Fold change /veh FIZ1 (11724087_x_at) / RFU OASL (11726364_x_at) / Fold change /veh OASL (11726364_x_at) / RFU SOX15 (11748057_x_at) / Fold change /veh SOX15 (11748057_x_at) / RFU CD79A (11719716_a_at) / Fold change /veh CD79A (11719716_a_at) / RFU HIST1H1D (11736915_at) / Fold change /veh HIST1H1D (11736915_at) / RFU CASKIN2 (11723855_a_at) / Fold change /veh CASKIN2 (11723855_a_at) / RFU LOC730098 (11760151_x_at) / Fold change /veh LOC730098 (11760151_x_at) / RFU OR4N2 (11742367_at) / Fold change /veh OR4N2 (11742367_at) / RFU PRRT2 (11749266_a_at) / Fold change /veh PRRT2 (11749266_a_at) / RFU SNX32 (11753110_a_at) / Fold change /veh SNX32 (11753110_a_at) / RFU CDHR5 (11726645_a_at) / Fold change /veh CDHR5 (11726645_a_at) / RFU RCAN1 (11760418_a_at) / Fold change /veh RCAN1 (11760418_a_at) / RFU FAM167A (11723789_a_at) / Fold change /veh FAM167A (11723789_a_at) / RFU FAM26E (11764081_at) / Fold change /veh FAM26E (11764081_at) / RFU ISYNA1 (11749810_s_at) / Fold change /veh ISYNA1 (11749810_s_at) / RFU ACY1 (11761880_at) / Fold change /veh ACY1 (11761880_at) / RFU 11764098_at / Fold change /veh 11764098_at / RFU SAMD14 (11745864_x_at) / Fold change /veh SAMD14 (11745864_x_at) / RFU NPB (11741838_a_at) / Fold change /veh NPB (11741838_a_at) / RFU TMPRSS6 (11731388_a_at) / Fold change /veh TMPRSS6 (11731388_a_at) / RFU KRTAP10-2 (11738614_at) / Fold change /veh KRTAP10-2 (11738614_at) / RFU ARHGAP8 /// PRR5-ARHGAP8 (11727945_x_at) / Fold change /veh ARHGAP8 /// PRR5-ARHGAP8 (11727945_x_at) / RFU KRTAP5-7 /// NADSYN1 (11734609_at) / Fold change /veh KRTAP5-7 /// NADSYN1 (11734609_at) / RFU RASL12 (11751679_a_at) / Fold change /veh RASL12 (11751679_a_at) / RFU CDKN2B (11736163_a_at) / Fold change /veh CDKN2B (11736163_a_at) / RFU PRF1 (11729649_at) / Fold change /veh PRF1 (11729649_at) / RFU, ZNF638 /// ZNF638-IT1 / Fold change vs veh, ZNF638 /// ZNF638-IT1 / RFU, PANK3 / Fold change vs veh, PANK3 / RFU, SH3YL1 / Fold change vs veh, SH3YL1 / RFU, ZEB2 / Fold change vs veh, ZEB2 / RFU, NRIP1 / Fold change vs veh, NRIP1 / RFU, PTTG1IP / Fold change vs veh, PTTG1IP / RFU, CAPN2 / Fold change vs veh, CAPN2 / RFU, MED14 / Fold change vs veh, MED14 / RFU, SNORA58 / Fold change vs veh, SNORA58 / RFU, C1orf63 / Fold change vs veh, C1orf63 / RFU, LRRFIP1 / Fold change vs veh, LRRFIP1 / RFU, NDUFAF7 / Fold change vs veh, NDUFAF7 / RFU, SLC12A2 / Fold change vs veh, SLC12A2 / RFU, IBTK / Fold change vs veh, IBTK / RFU, ESF1 / Fold change vs veh, ESF1 / Fold change vs veh, TMEM50B / RFU, TAOK1 / Fold change vs veh, TAOK1 / RFU, ACBD3 / Fold change vs veh, ACBD3 / RFU, TMA16 / Fold change vs veh, TMA16 / RFU, RWDD3 / Fold change vs veh, RWDD3 / RFU, BCAT1 / Fold change vs veh, BCAT1 / RFU, EDEM3 / Fold change vs veh, EDEM3 / RFU, TMEM33 / Fold change vs veh, TMEM33 / RFU, WDR75 / Fold change vs veh, WDR75 / RFU, AHCTF1 / Fold change vs veh, AHCTF1 / RFU, TFRC / Fold change vs veh, TFRC / RFU, ZDHHC17 / Fold change vs veh, ZDHHC17 / RFU, NOM1 / Fold change vs veh, NOM1 / RFU, ARL8B / Fold change vs veh, ARL8B / RFU, ZBTB11 / Fold change vs veh, ZBTB11 / RFU, TAMM41 / Fold change vs veh, TAMM41 / RFU, KIAA1704 /// LOC100996395 / Fold change vs veh, KIAA1704 /// LOC100996395 / RFU, ING1 / Fold change vs veh, ING1 / RFU, TRMT61B / Fold change vs veh, TRMT61B / RFU, FUBP3 / Fold change vs veh, FUBP3 / RFU, TP53 / Fold change vs veh, TP53 / RFU, TNKS2 / Fold change vs veh, TNKS2 / RFU, ZFP14 / Fold change vs veh, ZFP14 / RFU, ACTR2 / Fold change vs veh, ACTR2 / RFU, PPP3R1 / Fold change vs veh, PPP3R1 / RFU, PIK3R1 / Fold change vs veh, PIK3R1 / RFU, HNRNPA1 / Fold change vs veh, HNRNPA1 / RFU, RNF170 / Fold change vs veh, RNF170 / RFU, ZNF28 / Fold change vs veh, ZNF28 / RFU, RNGTT / Fold change vs veh, RNGTT / RFU, OGT / Fold change vs veh, OGT / RFU, BRD1 / Fold change vs veh, BRD1 / RFU, MARS / Fold change vs veh, MARS / RFU, ZNF655 / Fold change vs veh, ZNF655 / RFU, FAHD1 / Fold change vs veh, FAHD1 / RFU, BDP1 / Fold change vs veh, BDP1 / RFU, LRRCC1 / Fold change vs veh, LRRCC1 / RFU, ARID1A / Fold change vs veh, ARID1A / RFU, ZNF146 / Fold change vs veh, ZNF146 / RFU, ZNF330 / Fold change vs veh, ZNF330 / RFU, GPN3 / Fold change vs veh, GPN3 / RFU, C9orf123 / Fold change vs veh, C9orf123 / RFU, N4BP2L2 / Fold change vs veh, N4BP2L2 / RFU, ARFIP1 / Fold change vs veh, ARFIP1 / RFU, FAM179B / Fold change vs veh, FAM179B / RFU, BCL10 / Fold change vs veh, BCL10 / RFU, UHRF1BP1L / Fold change vs veh, UHRF1BP1L / RFU, BET1 / Fold change vs veh, BET1 / RFU, CNOT2 / Fold change vs veh, CNOT2 / RFU, ZNF268 / Fold change vs veh, ZNF268 / Fold change vs veh, ZNF507 / RFU, DGCR2 / Fold change vs veh, DGCR2 / RFU, WDSUB1 / Fold change vs veh, WDSUB1 / Fold change vs veh, HSP90B1 /// MIR3652 / RFU, ADSS / Fold change vs veh, ADSS / RFU, GK / Fold change vs veh, GK / RFU, ZNF148 / Fold change vs veh, ZNF148 / RFU, TAF9 / Fold change vs veh, TAF9 / RFU, SLC1A5 / Fold change vs veh, SLC1A5 / RFU, SLMO2 / Fold change vs veh, SLMO2 / RFU, ABCC4 / Fold change vs veh, ABCC4 / RFU, LOC101060439 /// RAP1B / Fold change vs veh, LOC101060439 /// RAP1B / RFU, RFX7 / Fold change vs veh, RFX7 / RFU, GTPBP10 / Fold change vs veh, GTPBP10 / RFU, CNEP1R1 / Fold change vs veh, CNEP1R1 / RFU, BIVM-ERCC5 /// ERCC5 / Fold change vs veh, BIVM-ERCC5 /// ERCC5 / RFU, ILF3 / Fold change vs veh, ILF3 / RFU 11762660_at / Fold change /veh 11762660_at / RFU VCAN (11757783_s_at) / Fold change /veh VCAN (11757783_s_at) / RFU DDX43 (11728927_at) / Fold change /veh DDX43 (11728927_at) / RFU KRT8 (11758188_x_at) / Fold change /veh KRT8 (11758188_x_at) / RFU NKD1 (11759106_at) / Fold change /veh NKD1 (11759106_at) / RFU SRD5A1 (11742802_a_at) / Fold change /veh SRD5A1 (11742802_a_at) / RFU TPSAB1 /// TPSB2 (11721975_s_at) / Fold change /veh TPSAB1 /// TPSB2 (11721975_s_at) / RFU GSTM3 (11746129_a_at) / Fold change /veh GSTM3 (11746129_a_at) / RFU IL23R (11737362_x_at) / Fold change /veh IL23R (11737362_x_at) / RFU TMEM51 (11727254_a_at) / Fold change /veh TMEM51 (11727254_a_at) / RFU PIWIL2 (11732686_x_at) / Fold change /veh PIWIL2 (11732686_x_at) / RFU ORM1 (11744905_x_at) / Fold change /veh ORM1 (11744905_x_at) / RFU CCDC152 (11743942_at) / Fold change /veh CCDC152 (11743942_at) / RFU ECM1 (11717891_a_at) / Fold change /veh ECM1 (11717891_a_at) / RFU IL23R (11748794_a_at) / Fold change /veh IL23R (11748794_a_at) / RFU TNFAIP8L3 (11732012_x_at) / Fold change /veh TNFAIP8L3 (11732012_x_at) / RFU MBOAT4 (11741988_at) / Fold change /veh MBOAT4 (11741988_at) / RFU 11764193_at / Fold change /veh 11764193_at / RFU TMEM53 (11763286_at) / Fold change /veh TMEM53 (11763286_at) / RFU MAGEB2 (11727129_at) / Fold change /veh MAGEB2 (11727129_at) / RFU TMEM200A (11744735_a_at) / Fold change /veh TMEM200A (11744735_a_at) / RFU CCDC152 (11751479_a_at) / Fold change /veh CCDC152 (11751479_a_at) / RFU FAM211A (11726209_a_at) / Fold change /veh FAM211A (11726209_a_at) / RFU RGS16 (11746705_a_at) / Fold change /veh RGS16 (11746705_a_at) / RFU VCAN (11755009_s_at) / Fold change /veh VCAN (11755009_s_at) / RFU RHOB (11743442_s_at) / Fold change /veh RHOB (11743442_s_at) / RFU RGS16 (11720943_a_at) / Fold change /veh RGS16 (11720943_a_at) / RFU RGS16 (11720944_at) / Fold change /veh RGS16 (11720944_at) / RFU, VPS4B / Fold change vs veh, VPS4B / RFU, CREB1 / Fold change vs veh, CREB1 / RFU, DNAJC13 / Fold change vs veh, DNAJC13 / RFU, GNAQ / Fold change vs veh, GNAQ / RFU, CDK5R1 / Fold change vs veh, CDK5R1 / RFU, ZRANB3 / Fold change vs veh, ZRANB3 / RFU, CUL4A / Fold change vs veh, CUL4A / RFU, CCNY / Fold change vs veh, CCNY / RFU, UFL1 / Fold change vs veh, UFL1 / RFU, COG3 / Fold change vs veh, COG3 / RFU, DIAPH2 / Fold change vs veh, DIAPH2 / RFU, SKA2 / Fold change vs veh, SKA2 / RFU, AFF3 / Fold change vs veh, AFF3 / RFU, LMF1 / Fold change vs veh, LMF1 / RFU, IPO11 / Fold change vs veh, IPO11 / RFU, DFFB / Fold change vs veh, DFFB / RFU, FOXP1 / Fold change vs veh, FOXP1 / RFU, CARD8 / Fold change vs veh, CARD8 / RFU, STRN3 / Fold change vs veh, STRN3 / RFU, ADK / Fold change vs veh, ADK / RFU, RASSF2 / Fold change vs veh, RASSF2 / RFU, WIPF1 / Fold change vs veh, WIPF1 / RFU, LARP1B / Fold change vs veh, LARP1B / RFU, RASA1 / Fold change vs veh, RASA1 / RFU, RB1 / Fold change vs veh, RB1 / RFU, PPFIA1 / Fold change vs veh, PPFIA1 / RFU, MAT2A / Fold change vs veh, MAT2A / RFU, CCT5 / Fold change vs veh, CCT5 / RFU, WDR92 / Fold change vs veh, WDR92 / RFU, CUX1 / Fold change vs veh, CUX1 / RFU, TTC7A / Fold change vs veh, TTC7A / RFU, TMEM135 / Fold change vs veh, TMEM135 / RFU, DEPTOR / Fold change vs veh, DEPTOR / RFU, CPM / Fold change vs veh, CPM / RFU, DNAJB6 / Fold change vs veh, DNAJB6 / RFU, CACNA2D3 / Fold change vs veh, CACNA2D3 / RFU, DTX4 / Fold change vs veh, DTX4 / RFU, TFCP2 / Fold change vs veh, TFCP2 / RFU, GMCL1 /// GMCL1P1 / Fold change vs veh, GMCL1 /// GMCL1P1 / RFU, AEBP2 / Fold change vs veh, AEBP2 / RFU, SNHG1 /// SNORD22 /// SNORD25 /// SNORD26 /// SNORD27 /// SNORD28 /// SNORD29 /// SNORD31 / Fold change vs veh, SNHG1 /// SNORD22 /// SNORD25 /// SNORD26 /// SNORD27 /// SNORD28 /// SNORD29 /// SNORD31 / Fold change (Aza/veh), C12orf56 (ProbeSet 11735607_a_at) / Fold change (ACY-1035/veh), C12orf56 (ProbeSet 11735607_a_at) / Fold change (Aza/veh), FGFR1OP (ProbeSet 11751329_s_at) / Fold change (ACY-1035/veh), FGFR1OP (ProbeSet 11751329_s_at) / Fold change (Aza/veh), VPS36 (ProbeSet 11739960_a_at) / Fold change (ACY-1035/veh), VPS36 (ProbeSet 11739960_a_at) / RFU SYPL1 (11715823_x_at) / Fold change /veh SYPL1 (11715823_x_at) / RFU IGFBP7 (11715501_s_at) / Fold change /veh IGFBP7 (11715501_s_at) / RFU REEP3 (11722064_at) / Fold change /veh REEP3 (11722064_at) / RFU IGLL1 (11728026_x_at) / Fold change /veh IGLL1 (11728026_x_at): dose or concentration left out as unconfirmed
Details: MV-4-11 cells, 48 hours

**Q.** For Nc1ncn([C@@H]2O[C@H](CO)[C@@H](O)[C@H]2O)c(=O)n1 [azacitidine], which “Fold change /veh GAP43 (11754022_s_at)” value is on record?
**A.** 0.84
